Laboratory results taken from patent publication US20220202895A1, “PULSATIVE GNRH ADMINISTRATION FOR TREATING COGNITIVE DISORDERS” (INSERM (Institut National de la Santé et de la Recherche …, priority 2019, published 2022).
Entries after “also recorded” stand apart in the source; their conditions may differ.

Tests used:
[1] = test system: GnRH-R expressing neurons of Gnrhr::Cre mice injected with hM4D(Gi) DREADD viral vector; conditions: mouse, in vivo, 3 mg/kg
[2] = test system: GnRH-R expressing neurons of Gnrhr::Cre mice injected with hM4D(Gi) DREADD viral vector; conditions: mouse, in vivo, 3 mg/kg; remark: listed apart in the source
[3] = test system: wild-type mice; test: LH pulsatility by serial tail blood sampling and LH ELISA; assay type: in vivo, mouse; conditions: continuous subcutaneous infusion by osmotic pump, 15 days
Procedure: LH assays: LH levels were determined by the previously described sensitive LH sandwich ELISA (Steyn et al., 2013). A 96-well high-affinity binding microplate (Corning) was coated with 50 μL of capture antibody (monoclonal antibody, anti-bovine LHβ subunit, 518B7; L. Sibley; University of California, UC Davis) at a final dilution of 1:1,000 (in 0.1M Na2CO3/NaHCO3, pH 9.6) and incubated overnight at 4° C. Wells were incubated with 200 μL blocking buffer (5% (w/v) skimmed milk powder in 1×PBS-T pH 7.4 (0.1 M PBS, 0.05% Tween 20 (Sigma #P9416)) for 2 hours at room temperature (RT). A standard curve was generated using a twofold serial dilution of mouse LH (reference preparation, AFP-5306A; National Institute of Diabetes and Digestive and Kidney Diseases National Hormone and Pituitary Program (NIDDK-NHPP)) in 1% (w/v) BSA (Sigma, A9418) in 1×PBS-T. The LH standards and blood samples were incubated with 50 μL of detection antibody (rabbit LH antiserum, AFP240580Rb; NIDDK-NHPP) at a final dilution of 1:10,000 for 1.5 hours at RT. […] The reaction was stopped by the addition of 50 μL of 3M HCl to each well, and the absorbance was measured at 450 nm.
Adult mice were habituated with daily handling. […] LH levels were then determined using the protocol described before. […]

[4] = test system: wild-type mice; conditions: mouse, in vivo
Procedure: Novel object recognition test. Recognition memory was assessed using the novel object recognition test (Leger et al., 2013). Mice were single-housed for 5 days prior to testing. On day 1, two identical objects (A+A) were placed within the open-field arena on opposite sides of the cage, equidistant from the cage walls. Each mouse was placed within the two objects and allowed to explore them for 15 min. Day 2 consisted of two phases, a familiarization and a test phase. During the familiarization phase (trial 1) that lasted 15 min, mice explored two other identical objects (B+B). After this phase, mice were placed back in its home cage for 1 hour before starting the test phase. During the test phase, one object from trial 1 and a completely new object (B+C) were placed within the open-field area and mice were allowed to explore them for 5 min (trial 2). The object recognition score was calculated as the time spent exploring the new object (trial 2) over the total exploration time, and is used to represent recognition memory function. […]

[5] = test system: wild-type mice; conditions: mouse, in vivo; remark: listed apart in the source
Procedure: Habituation/dishabituation test. The habituation/dishabituation test was used to assess the ability to differentiate between different odours (Breton-Provencher et al., 2009). Mice were single-housed for 8 days prior to testing. This olfactory test included a presentation of acetophenone (00790, Sigma) for habituation and octantal (05608, Sigma) for dishabituation, or vice versa. Before the test, mice were allowed to explore the open-field area and an empty odour box for 30 min. After this habituation period, mice were sequentially presented with one odour for four consecutive trials for a duration of 1 min, and an inter-trial interval of 10 min was maintained to ensure the replacement of the odour. After four consecutive trials, a second odour was presented during a 1 min trial. Odours (20 μl of 1:1000 dilution) were administered on a filter paper and placed in a perforated plastic box to avoid direct contact with the odour stimulus. The measurement consisted of recording the total amount of time the mouse spent sniffing the object during different trials.

Row | Compound | cognitive performance [1] | olfactory performance (ability to discriminate between different odors) [2] | LH pulsatility (pulse frequency and amplitude) [3] | cognitive performance [4] | olfactory performance [5]
1 | C[N+]1([O-])CCN(C2=Nc3cc(Cl)ccc3Nc3ccccc32)CC1 [CNO, clozapine-n-oxide] | dramatically reduced; also recorded: impaired | dramatically reduced; also recorded: impaired |  |  | 
2 | LUTRELEF®: a GnRH peptide of clinic use to restore fertility in patients with hypogonadotropic hypogonadism; GnRH acetate/diacetate (gonadorelin), Ferring Pharmaceuticals |  |  | prevented; also recorded: blunted LH pulsatility | marked deleterious effects | marked deleterious effects
